The source made the active and inactive calls. No cut-off for these calls is given here.

Drawing on ChEMBL document CHEMBL1154146, “A 2-substituted prodiginine, 2-(p-hydroxybenzyl)prodigiosin, from Pseudoalteromonas rubra” (J Nat Prod, 2008), this text covers IC50 and inhibition for two compounds.

For one assay, the system named is SK-OV-3. Kind of assay: Cytotoxicity against human SKOV3 cells after 48 hrs by SRB assay. It is filed as functional, cell-based. The following applies: SK-OV-3, 48 h. For orientation: Sulforhodamine B stains cellular protein and so reports cell mass.
Assay [1] concerns the target T1, DNA topoisomerase 1 (Homo sapiens) (UniProt P11387).
T1 sequence (whole entry): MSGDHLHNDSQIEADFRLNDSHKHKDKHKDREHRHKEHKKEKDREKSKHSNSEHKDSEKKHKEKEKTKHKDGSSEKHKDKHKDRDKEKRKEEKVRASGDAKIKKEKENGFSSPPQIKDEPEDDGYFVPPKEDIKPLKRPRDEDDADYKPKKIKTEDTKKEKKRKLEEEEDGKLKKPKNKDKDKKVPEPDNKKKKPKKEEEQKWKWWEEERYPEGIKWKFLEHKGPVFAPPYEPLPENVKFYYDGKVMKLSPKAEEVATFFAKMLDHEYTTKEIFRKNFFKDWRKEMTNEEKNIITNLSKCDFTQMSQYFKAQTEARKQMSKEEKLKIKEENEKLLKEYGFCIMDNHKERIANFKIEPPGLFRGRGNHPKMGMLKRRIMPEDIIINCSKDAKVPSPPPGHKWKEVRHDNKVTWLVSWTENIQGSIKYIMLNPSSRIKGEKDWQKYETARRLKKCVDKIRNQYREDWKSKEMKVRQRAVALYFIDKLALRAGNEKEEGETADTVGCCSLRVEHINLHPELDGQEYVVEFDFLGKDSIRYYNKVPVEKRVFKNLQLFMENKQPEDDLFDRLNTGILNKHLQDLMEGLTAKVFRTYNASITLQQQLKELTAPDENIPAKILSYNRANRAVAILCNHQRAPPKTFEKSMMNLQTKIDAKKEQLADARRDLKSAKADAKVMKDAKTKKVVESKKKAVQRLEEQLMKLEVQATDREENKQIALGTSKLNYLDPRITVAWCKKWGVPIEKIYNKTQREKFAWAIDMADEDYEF
Kind of assay: Inhibition of human topoisomerase 1.

Broadly, the IC50 is the concentration at which inhibition is half-maximal. Read a low IC50 as higher potency. On to `CCCCCC1=C/C(=C/c2[nH]c(-c3ccc(Cc4ccc(O)cc4)[nH]3)cc2OC)N=C1C`, for which, in the assay on SK-OV-3, it took 1300 nM to reach half-maximal inhibition (IC50). Besides, the inhibition entry in assay [1] is “Active”.
`CCCCCC1=C/C(=C/c2[nH]c(-c3ccc[nH]3)cc2OC)N=C1C` [PRODIGIOSIN]: in the assay on SK-OV-3, the IC50 was 1300 nM. The inhibition result in assay [1] is “Active”.
